This passage reports relative activity and CDMO activity results from patent publication US7217559B2, “Gene encoding cyclododecanone monooxygenase” (National Research Council of Canada, priority 2002, dated 2007).

In data set [1] the test system is cyclododecanone monooxygenase (CDMO). The data set can be described thus: Substrate specificity of cloned CDMO (relative activity towards cyclic ketones). The data set is classed as biochemical, Pseudomonas putida strain HI-70. The conditions noted are these: ketone as substrate, cyclododecanone = 100%.
Data set [2] has the same test system. The data set can be described thus: Comparison of CDMO activity in E. coli and native HI-70. In kind it is biochemical, Pseudomonas putida strain HI-70.

In the case of `O=C1CCCCCCCCC1` [cyclodecanone], the relative activity in data set [1] is listed as 10%.
On the same count and under the same terms, the same measure for `O=C1CCCCCCCCCCCCCC1` [cyclopentadecanone]: 144%; for `O=C1CCCCCCCCCCCC1` [cyclotridecanone]: 138%; for `O=C1CCCCCCCCCC1` [cycloundecanone]: 56%.
`O=C1CCCCCCCCCCC1` [cyclododecanone]: the relative activity in data set [1] was 100%.

B1: CDMO: cyclododecanone monooxygenase of Pseudomonas putida HI-70, encoded by cdnB, amino acid sequence SEQ ID NO:8 (protein)
chain: MSQLIQEPAEAGVTSQKVSFDHVALREKYRQERDKRLRQDGQEQYLEVAVTCDEYLKDPYADPIVRDPVVRETDVFIIGGGFGGLLAAVRLQQAGVSDYVMVERAGDYGGTWYWNRYPGAQCDIESYVYMPLLEEMGYIPTEKYAFGTEILEYSRSIGRKFGLYERTYFQTEVKDLSWDDEAARWRITTDRGDKFSARFVCMSTGPLQRPKLPGIPGITSFKGHSFHTSRWDYSYTGGDQTGNLEGLKDKRVAIIGTGATSIQAVPHLAAYAQELYVIQRTPISVGFRGNKPTDPEWAKSLQPGWQQARMDNFNAITHGMPVDVDLVQDSWTKIFGEIGVFLGSDGSRAQMVDFQLMEQIRARVDQEVKDPATAESLKPYYNIMCKRPGFHDSYLPSFNKPNVTLVDTQGAGVERITEKGLVVNGREYEVDCLIYATGFEYQTKLSRRNGYEIHGRNGQPLSDKWKDGLSTLWGYHIRDFPNCFILGNGQSAVTPNFTHMLNEAGKHVAYVVKHCLDERVDVFEPTAEAEQAWVDHVMSFAGIKQQYDRECTPSYYNNEGQVNDVALTRTTSTRAVRSLINILREWREKGDFAQFQQRKR
modifications: Primer
For B1, the CDMO activity in data set [2] (from E. coli DH5α(pSD-cdnB)) was 0.48 U/mg of protein; in data set [2] (original P. putida strain HI-70), 0.14 U/mg of protein.
